Reference: patent US20030083483A1, “Molecular interaction sites of vimentin RNA and methods of modulating the same” (priority 1999, published 2003)
“Also recorded” adds a separate entry of the source.

How the values were obtained:
[1] = tested on: protein synthesis (luciferase reporter); assay: transcription/translation assay based on expression of a luciferase plasmid; type: biochemical; conditions: unit printed only in the Paromomycin cell and b169
Description: The compounds are screened for binding affinity using MASS or conventional high-throughput functional screens. The best scoring compounds from docking a 256-member library against the 16S A-site ribosomal RNA structure are shown in the table 5 below. The MASS assay was performed with the 27-mer model RNA sequence of the 16S A-site whose NMR structure has been determined. The transcription/translation assay was based on expression of a luciferase plasmid.

[2] = tested on: 27-mer RNA corresponding to the 16S rRNA A site containing 3 dA residues; assay: MS-MS CID/CAD protection assay on chimeric 27-mer RNA/DNA; type: binding, prokaryotic; conditions: same activation energy as free RNA
From the text: In order to study the binding of paromomycin to the RNA of Example 20, the chimeric RNA/DNA molecule of Example 20 was synthesized using standard automated nucleic acid synthesis protocols on an automated synthesizer. A sample of this nucleic acid was then subjected to ESI followed by CID in a mass spectrometer to afford the fragmentation pattern indicating a lack of structure at the sites of dA incorporation, as described in Example 20. This indicated the accessibility of these dA sites in the structure of the chimeric nucleic acid.
Next, another sample of the chimeric nucleic acid was treated with a solution of paromomycin and the resulting mixture analyzed by ESI followed by CID using a mass spectrometer. […] This was also indicative of binding of the paromomycin to the chimeric nucleic acid, because of the increased mass of the observed ion complex. Further, there was also observed, a shift in the distribution of the multiply charged ion complexes which reflected a change in the conformation of the nucleic acid in the paromomycin-nucleic acid complex into a more compact structure. […]
The mass spectrum obtained from a 5 μM solution of C mixed with 125 nM paromomycin contains [M-5H]^5− ions from free C at m/z 1783.6 and the [M-5H]^5− ions of the paromomycin-C complex at m/z 1907.3. […] Signals from the [M-4H]^4− ions of C and the complex are detected at m/z 2229.8 and 2384.4, respectively. […]

16S A-site RNA = conditions: previously reported / solution value for 16S A site; read-out: literature Kd; cited from earlier work

NC[C@@H]1O[C@H](O[C@H]2[C@@H](O)[C@H](O[C@@H]3[C@@H](O)[C@H](N)C[C@H](N)[C@H]3O[C@H]3O[C@H](CO)[C@@H](O)[C@H](O)[C@H]3N)O[C@@H]2CO)[C@H](N)[C@@H](O)[C@@H]1O [Paromomycin]
Activity: Inhibition of protein synthesis in transcription/translation assay for luciferase reporter [1]: 0.3 µM | fragmentation at the dA sites of the ligand-RNA complex on CID/CAD [2]: no fragmentation at the dA sites; also recorded: No cleavage was found to occur; also recorded: No significant fragment ions are observed; also recorded: no fragment ions are detected | Kd (16S A-site RNA): 200 nM
